In US5114972A, “Synthesis and uses of new ascorbic acid derivatives which have anti-oxidant and anti-cancer activities” (priority 1990, dated 1992):

Columns and labels:
[1] = tested on: mice; test: Reduction of toxic side-effect of 5-FU by OC-5186 (Experiment 2); assay type: in vivo
Method: (§1) In the Experiment 2, the amount of the oligomer was cut down to 1 mg/kg/day to see whether we could still observe anti-cancer activity.

[2] = tested on: Ehrlich's ascites tumor (EAT); test: Anti-cancer activity, Ehrlich's ascites tumor (EAT) model; assay type: in vivo, mice; details: 5-FU 20 mg/kg/day
Method: (§2) We used two mice models (Tomomatsu, Morita, Nagai, Shiwaku, Ichiki and Yonoki: Acta Med. Univ. Kagoshima. 17:99, 1975), i.e., (a) Ehrlich's ascites tumor (EAT) model and (b) a solid tumor model in which EAT cells were innoculated subcutaneously. In (a), 10^7 tumor cells were injected I.P. in a mouse with the body weight of 20 g. In (b), the same amount of tumor cells were injected subcutaneously in a mouse of similar weight. After 21 days, we measured several parameters: (i) the change of body weight; (ii) average time to their death, from which we measure extension of life span, and (iii) survival rate.
In the ascites tumor model, an increase of body weight is related to the increase in ascites. When the animal dies, we collect the ascites fluid and measure the number of tumor cells found in the ascites.
(§3) In the solid tumor model, we measured the extension of the life span and the survival rate. […] In the Experiment 1, from day 4 until day 13 (for ten days), anti-cancer drugs were administered. […] In the combination therapy, both drugs were administered simultaneously at their respective doses. […] With the 5-FU, they died in an average of 20.3 days. […] In the tumor model, similar tendency was observed.
as §1

[3] = tested on: solid tumor (EAT cells); test: Anti-cancer activity, solid tumor model (EAT cells inoculated subcutaneously); assay type: in vivo, mice; details: 5-FU 20 mg/kg/day
Method: as §2, §3, §1

[4] = tested on: brain ischemia; test: Survival rate after global brain ischemia; assay type: in vivo, Sprague-Dawley rats; details: 9 mg/kg; OC-5186 injected I.P. thirty minutes prior to ischemia; control 8 out of 8 died within 2 days
Method: Adult, male Sprague-Dawley rats, weighing 300 to 350 grams, were used to prepare global ischemia. Anesthesia was induced and maintained with forane in 70% nitrous oxide-30% oxygen. After trachea was intubated, anesthesia was maintained using a ventilator. Both common carotid arteries were exposed and occluded by microaneurysmal clips. Then 12 to 14 ml of blood was withdrawn from the tail vein to bring the blood pressure to 30 mm Hg, which caused global ischemia. After twenty minutes of ischemia, blood was reinfused, clips were removed to induce recirculation. After twenty minutes of recirculation, the rat was decapitated, the brain was removed in ice-cold saline and then homogenized for TBAR measurement and spin trap measurement. For the measurement of survival rate, the wound was sutured and the animal recovered. The animal was returned to its cage. They were then observed for the survival rate. […] In this experiment, the brain was homogenized in the presence of 50 mM tert-butyl-(alpha)-phenylnitrone and the homogenate was introduced to electron spin resonance spectrophotometer.
In control experiment, where no drug was introduced, 8 out of 8 animals died within 2 days. […] Ascorbic acid (9 mg/kg) had no effect.

[5] = tested on: FCR-3 strain P. falciparum; test: Growth inhibition of P. falciparum in in vitro culture; assay type: cell-based; details: 50 ug/ml, forty-eight hours
Method: The FCR-3 strain P. falciparum was used. Blood-stage parasites were cultured in RPMI-1640 (GIBCO Laboratories, Chagrin Falls, Ohio) in 96 well flat bottomed plates (Costar; Cambridge, Mass.) using the candle jar method described by Jensen and Trager (J. Parasitology 63:883,1977) and modified by Grun and Weidanz (J. Parasitology 73:384, 1987). Parasitemia was estimated on GIEMSA stained films of cultures. For drug administration, desired amounts of chemicals were added to an individual wells of 96 well plates. Forty-eight hours later, parasitemia was estimated and the degree of growth inhibition was determined.

[6] = tested on: sickle red blood cells; test: Formation of irreversibly sickled cells upon sickling-unsickling cycling in vitro; assay type: cell-based; details: 10 ug/ml
From the text: The inventor previously developed the method to produce irreversibly sickled cells (ISC, which are irreversibly denatured sickle cells) by exposing sickle red blood cells to a repeated sickling-unsickling cycling in vitro. He used this system to determine the efficacy of drugs in protecting cell membranes (Ohnishi, Br. J. Haematol. 55:665-671, 1983; Ohnishi et al. Biochim. Biophys. Acta 886:119-129, 1986). […] These heavy cells were collected, the amount measured, and the percentage of production calculated.

[7] = tested on: lipid peroxidation (TBAR) in rat head/brain homogenate; test: Inhibition of TBAR production (lipid peroxidation) in ischemic rat brain homogenate, drug added in vitro; assay type: biochemical; details: added in vitro before exposure to air (FIG. 3, FIG. 4)
From the text: (A) When cell membranes are exposed to ischemic or hypoxic insult, lipid peroxidation takes place. The degree of peroxidation can be measured by the production of thiobarbiturate reactive substances (TBAR). We have developed a simple assay method; we decapitate the rat and keep the head under a hypoxic condition for thirty minutes at 37 degrees and then homogenize it, then expose the homogenate to air for sixty minutes and measure the production of TBAR.

[8] = Anti-oxidant activity and protection from ischemic trauma (summary statement)
[9] = Superoxide scavenging activity, adenochrome method; assay type: biochemical; details: 50 ug/ml each; absorbance at 480 nm (FIG. 1)
From the text: From the change of the slope, we can estimate the activity of scavenging action.

Structure (SMILES): O=c1[nH]cc(F)c(=O)[nH]1 [5-FU, 5-fluorouracil]
- survival of chemotherapy / toxicity ([1]; administered for 23 days): all animals die if it is administered for 23 days
- tolerated duration of 5-FU administration without OC-5186 ([1]; without OC-5186): ≤ 10 days
- 21 day survival, EAT model ([2]; Experiment 1, day 4 to day 13, OC-5186 10 mg/kg/day, combination at respective doses, control 25%): 40%
- Average survival, EAT model ([2]; Experiment 1, day 4 to day 13, OC-5186 10 mg/kg/day, combination at respective doses, control 17.0 days): 20.3 days
- 21 day survival, EAT model ([2]; Experiment 2, 23 days, OC-5186 1 mg/kg/day, combination, control 0%): 40%
- Average survival, EAT model ([2]; Experiment 2, 23 days, OC-5186 1 mg/kg/day, combination, control 15.3 days): 20.3 days
- Solid tumor weight (on 21 days) ([3]; Experiment 1, day 4 to day 13, OC-5186 10 mg/kg/day, combination at respective doses, control 1.2 g): 0.70 g
- 21 day surv., solid tumor model ([3]; Experiment 2, 23 days, OC-5186 1 mg/kg/day, combination, control 25%): 40%
- Av. Surv., solid tumor model ([3]; Experiment 2, 23 days, OC-5186 1 mg/kg/day, combination, control 23.2 days): 26 days

Structure (SMILES): O=C1O[C@H]([C@@H](O)CO)C(O)=C1O [Ascorbic acid]
- survival after ischemia [4]: had no effect
- inhibition of growth of P. falciparum (in words) [5]: did not inhibit the growth
- inhibition of formation of irreversibly denatured cells (in words) [6]: did not inhibit the formation

Structure (SMILES): CCCCC[C@H](O)/C=C/C1=C(C/C=C\CCCC(=O)OC[C@H](O)[C@H]2OC(=O)C(O)=C2O)C(=O)CC1 [OC-5181]
- inhibition of TBAR production / antioxidant activity in vitro [7]: antioxidant activity comparable to free acid type prostaglandin oligomers, OC-2186
- anti-oxidant activity [8]: strong anti-oxidant activity
- superoxide-induced adenochrome formation (slope of the curve) [9]: the slope of the curve decreased
